Our source for the IC50 values is BindingDB's records for patent US8703811 (Genzyme, 2014).

pIC50: −log10 of the molar value.

Experiment [1] addresses T1, Dihydroorotate dehydrogenase (fumarate) (Saccharomyces cerevisiae (strain ATCC 204508 / S288c), UniProt P28272).
T1 sequence (P28272 whole entry): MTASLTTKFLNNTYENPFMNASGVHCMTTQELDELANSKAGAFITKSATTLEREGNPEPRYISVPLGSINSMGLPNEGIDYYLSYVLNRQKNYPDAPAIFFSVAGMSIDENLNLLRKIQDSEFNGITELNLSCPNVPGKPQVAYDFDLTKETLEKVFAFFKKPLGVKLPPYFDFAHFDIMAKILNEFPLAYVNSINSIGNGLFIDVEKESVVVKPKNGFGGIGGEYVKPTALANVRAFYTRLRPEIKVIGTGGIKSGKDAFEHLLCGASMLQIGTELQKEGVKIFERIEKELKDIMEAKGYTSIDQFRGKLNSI
The experiment in a line: Enzymatic Assays. An excerpt: (§1) Type 2 DHODH activity was monitored with either the direct assay measuring the formation of orotate or via a chromogen reduction assay using DCIP. Although the extinction coefficient and absorption wavelength are preferable for the chromogen reduction assay, the inorganic electron acceptor DCIP can be utilized by DHODH as the final electron acceptor in lieu of CoQn when the endogenous substrate is at a low concentration. As such, the direct assay was used to measure the binding affinity of pfDHODH to CoQD and L-DHO. The enzymatic reaction was performed by varying the L-DHO concentration (1-400 μM) or CoQD concentration (1-200 μM) while keeping the other substrate constant and in excess.

Experiment [2] deals with T2, Dihydroorotate dehydrogenase (quinone), mitochondrial [100-517] (Plasmodium berghei (strain Anka), UniProt A0A509AEH5).
T2 construct: 100-517
T2 sequence (A0A509AEH5 whole entry): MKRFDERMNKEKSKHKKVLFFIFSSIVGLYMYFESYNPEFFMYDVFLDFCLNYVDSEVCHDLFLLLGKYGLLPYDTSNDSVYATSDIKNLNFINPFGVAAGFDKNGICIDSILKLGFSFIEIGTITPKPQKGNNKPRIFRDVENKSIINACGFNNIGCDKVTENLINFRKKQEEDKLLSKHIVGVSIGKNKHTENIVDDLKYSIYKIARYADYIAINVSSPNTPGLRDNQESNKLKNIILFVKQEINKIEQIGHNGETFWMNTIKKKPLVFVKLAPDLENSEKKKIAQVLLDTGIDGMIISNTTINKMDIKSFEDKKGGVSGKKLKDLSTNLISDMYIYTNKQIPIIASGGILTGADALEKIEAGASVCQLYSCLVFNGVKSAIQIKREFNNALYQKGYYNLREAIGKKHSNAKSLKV
The experiment in a line: Enzymatic Assays.
Source text: as §1

The pIC50 is the IC50 on a negative log10 scale, so that one unit is a factor of ten. A higher pIC50 goes with a low IC50. As for `Cc1ccccc1/C=C/c1cc(O)c2ccccc2n1` [US8703811, 2], in experiment [1], the pIC50 was < 5.00.

Consider `Fc1cc(I)ccc1Nc1ccnc2cc(Cl)ccc12` [US8703811, 4], for which the pIC50 in experiment [2] is < 5.00.
